Measurements: patent US20210214375A1 (LUNDBECK LA JOLLA RESEARCH CENTER, INC., priority 2017, published 2021)
Like-named read-outs stand apart in the source and are kept apart here.

Experiments:
MAGL [1] = target: T1, MAGL (Mus musculus, UniProt O35678); test: Mouse brain proteomes from inhibitor treated mice (oral gavage, brain proteomes analyzed 4 h after administration); type: in vivo, mouse (C57Bl/6J); conditions: brain proteome 4 h after administration, read-out: % Inh 5 mg/kg MGLL (Mouse)
T1 construct: from tissue; host or cells: brain of wild-type C57Bl/6J mice
T1 sequence (O35678 1-303): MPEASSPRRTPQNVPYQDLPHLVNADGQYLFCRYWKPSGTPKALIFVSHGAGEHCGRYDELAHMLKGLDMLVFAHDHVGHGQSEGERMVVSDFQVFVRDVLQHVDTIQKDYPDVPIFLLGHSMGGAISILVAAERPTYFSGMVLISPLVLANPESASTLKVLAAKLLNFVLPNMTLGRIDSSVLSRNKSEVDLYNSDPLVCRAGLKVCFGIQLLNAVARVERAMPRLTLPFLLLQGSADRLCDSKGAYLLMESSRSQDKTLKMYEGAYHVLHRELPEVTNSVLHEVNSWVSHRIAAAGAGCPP
Method: (§1) Compounds are tested to assess their MAGL and serine hydrolase activity using the following in vitro and in vivo assays.
Preparation of Mouse Brain Proteomes from Inhibitor Treated Mice.
Inhibitors were administered to wild-type C57Bl/6J by oral gavage in a vehicle of polyethylene glycol. Each animal was sacrificed 4 h following administration and brain proteomes were prepared and analyzed according to previously established methods (See Niphakis, M. J., et al. (2011) ACS Chem. Neurosci. and Long, J. Z., et al. Nat. Chem. Biol. 5:37-44).

MAGL [2] = target: T2, MAGL (Homo sapiens, UniProt Q99685); test: In vitro competitive activity-based protein profiling (gel-based, FP-Rh or HT-01 probe); type: biochemical
T2 construct: Proteomes (human prefrontal cortex or cell membrane fractions); from tissue
T2 sequence (Q99685 1-303): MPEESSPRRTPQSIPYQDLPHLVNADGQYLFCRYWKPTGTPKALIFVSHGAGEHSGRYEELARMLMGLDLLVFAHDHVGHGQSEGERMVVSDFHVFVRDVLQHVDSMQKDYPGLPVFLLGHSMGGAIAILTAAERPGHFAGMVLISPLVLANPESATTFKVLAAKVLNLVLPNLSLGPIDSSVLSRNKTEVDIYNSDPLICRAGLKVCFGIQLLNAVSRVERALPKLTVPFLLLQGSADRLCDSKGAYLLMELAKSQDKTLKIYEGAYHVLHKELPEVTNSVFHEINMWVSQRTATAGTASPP
Method: as §1
(§2) Proteomes (human prefrontal cortex or cell membrane fractions) (50 μL, 1.0 mg/mL total protein concentration) were preincubated with varying concentrations of inhibitors at 37° C. After 30 min, FP—Rh or HT-01 (1.0 μL, 50 μM in DMSO) was added and the mixture was incubated for another 30 min at room temperature. Reactions were quenched with SDS loading buffer (15 μL-4×) and run on SDS-PAGE.

MGLL = target: T3, MGLL (Mus musculus, UniProt O35678); test: In vitro competitive activity-based protein profiling, mouse brain proteome; type: biochemical
T3 construct: Brain; from tissue; host or cells: mouse brain proteome
T3 sequence (O35678 1-303): T1 sequence (O35678 1-303)
Method: [Worded in the source for another species; this species is reported under the same test.] as §2

ABHD6 = target: T4, ABHD6 (Mus musculus, UniProt Q8R2Y0); test: In vitro competitive activity-based protein profiling, mouse brain proteome, ABHD6; type: biochemical; conditions: for IC50: mouse; for % Inh ABHD6 Brain (Mouse, μM): mouse brain proteome
T4 construct: Brain; from tissue; host or cells: mouse brain proteome
T4 sequence (Q8R2Y0 1-336): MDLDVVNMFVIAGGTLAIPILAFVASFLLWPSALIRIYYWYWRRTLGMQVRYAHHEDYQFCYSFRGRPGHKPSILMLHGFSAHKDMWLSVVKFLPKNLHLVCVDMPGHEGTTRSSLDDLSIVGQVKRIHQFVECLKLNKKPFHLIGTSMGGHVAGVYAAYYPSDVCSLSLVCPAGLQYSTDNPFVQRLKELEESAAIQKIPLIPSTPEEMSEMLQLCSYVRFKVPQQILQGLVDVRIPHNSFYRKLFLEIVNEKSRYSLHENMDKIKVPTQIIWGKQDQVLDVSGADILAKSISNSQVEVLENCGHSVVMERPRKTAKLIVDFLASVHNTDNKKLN
Method: [Worded in the source for another target; this target is reported under the same test.] as §2

[3] = PC3 proteome, read-out: IC50 MGLL PC3 (Human)
[4] = PFC (prefrontal cortex) proteome, read-out: IC50 MGLL PFC (Human)
[5] = PFC (prefrontal cortex) proteome

inhibition at 5 mg/kg (MAGL [1]) [%]	IC50 (MAGL [2]; [3]) [nM]	IC50 (MGLL) [nM]	IC50 (ABHD6) [nM]	SMILES	also measured
≥ 75	< 100	–	–	CC1(N(CC(=O)O)Cc2ccc(C(F)(F)F)cc2N2CCOCC2)CCN(C(=O)OC(C(F)(F)F)C(F)(F)F)CC1 [Example 124, N-(1-(((1,1,1,3,3,3-Hexafluoropropan-2-yl)oxy)carbonyl)-4-methylpiperidin-4-yl)-N-(2-morpholino-4-(trifluoromethyl)benzyl)glycine]	–
–	< 100	100 to 1000	> 1000	O=C(O)C1CCN(c2cc(C(F)(F)F)ccc2CN2CCC3(CC2)CCN(C(=O)OC(C(F)(F)F)C(F)(F)F)C3)CC1 [Example 195, 1-(2-((2-(((1,1,1,3,3,3-Hexafluoropropan-2-yl)oxy)carbonyl)-2,8-diazaspiro[4.5]decan-8-yl)methyl)-5-(trifluoromethyl)phenyl)piperidine-4-carboxylic acid]	IC50 (MAGL [2]; [4]): 100 to 1000 nM
–	–	100 to 1000	> 1000	CN(Cc1cc(N2CCCC2)cc(C(F)(F)F)c1)C1(C)CCN(C(=O)OC(C(F)(F)F)C(F)(F)F)CC1 [Example 76, 1,1,1,3,3,3-Hexafluoropropan-2-yl 4-methyl-4-(methyl(3-(pyrrolidin-1-yl)-5-(trifluoromethyl)benzyl)amino) piperidine-1-carboxylate]	IC50 (MAGL [2]; [4]): < 100 nM
≥ 75	–	–	–	O=C(O)C1CCN(Cc2cc(C(F)(F)F)ccc2C(=O)N2CCCC23CCN(C(=O)OC(C(F)(F)F)C(F)(F)F)CC3)CC1 [Example 10, 1-(2-(8-(((1,1,1,3,3,3-Hexafluoropropan-2-yl)oxy)carbonyl)-1,8-diazaspiro[4.5]decane-1-carbonyl)-5-(trifluoromethyl)benzyl)piperidine-4-carboxylic acid]	% Inh MGLL PFC (Human, μM) (MAGL [2]; [5]): ### (### is ≥ 75%)
≤ 25	< 100	–	–	CN(Cc1cccc(Cl)c1C1(C(=O)O)CCCC1)C1(C)CCN(C(=O)OC(C(F)(F)F)C(F)(F)F)CC1 [Example 9, 1-(2-Chloro-6-(((1-(((1,1,1,3,3,3-hexafluoropropan-2-yl)oxy)carbonyl)-4-methylpiperidin-4-yl)(methyl)amino)methyl)phenyl)cyclopentane-1-carboxylic acid]	% Inh MGLL PFC (Human, μM) (MAGL [2]; [5]): ### (### is ≥ 75%)
≤ 25	< 100	–	–	O=C(O)CN1CC2CN(c3cc(C(F)(F)F)ccc3CN3CCCC34CCN(C(=O)OC(C(F)(F)F)C(F)(F)F)CC4)CC2C1 (stereo not drawn) [Example 155]	–
–	–	–	–	O=C(O)[C@@H]1CCCN1C1CCN(c2cc(C(F)(F)F)ccc2CN2CCCC23CCN(C(=O)OC(C(F)(F)F)C(F)(F)F)CC3)CC1 [Example 164, (1-(2-((8-(((1,1,1,3,3,3-Hexafluoropropan-2-yl)oxy)carbonyl)-1,8-diazaspiro[4.5]decan-1-yl)methyl)-5-(trifluoromethyl)phenyl)piperidin-4-yl)-L-proline]	% Inh MGLL Brain (Mouse, μM) (MGLL): ### (### is ≥ 75%); % Inh ABHD6 Brain (Mouse, μM) (ABHD6): # (# is ≤ 25%); % Inh MGLL PC3 (Human, μM) (MAGL [2]; PC3 proteome): ### (### is ≥ 75%)
≤ 25	< 100	–	–	O=C(O)CN1CC2(CCN(c3cc(C(F)(F)F)ccc3CN3CCCC34CCN(C(=O)OC(C(F)(F)F)C(F)(F)F)CC4)CC2)C1 [Example 157, 2-(7-(2-((8-(((1,1,1,3,3,3-Hexafluoropropan-2-yl)oxy)carbonyl)-1,8-diazaspiro[4.5]decan-1-yl)methyl)-5-(trifluoromethyl)phenyl)-2,7-diazaspiro[3.5]nonan-2-yl)acetic acid]	–
≥ 75	< 100	–	–	CN(Cc1ccc(F)cc1C1(C(=O)O)CCCC1)C1(C)CCN(C(=O)OC(C(F)(F)F)C(F)(F)F)CC1 [Example 143, 1-(5-Fluoro-2-{[(1-{[(1,1,1,3,3,3-hexafluoropropan-2-yl)oxy]carbonyl}-4-methylpiperidin-4-yl)(methyl)amino]methyl}phenyl) cyclopentane-1-carboxylic acid]	% Inh MGLL PFC (Human, μM) (MAGL [2]; [5]): ### (### is ≥ 75%)
≤ 25	–	–	–	O=C(O)CN1CC2CC1CN2c1cc(CN2CC3(CCN(C(=O)OC(C(F)(F)F)C(F)(F)F)CC3)C2)cc(C(F)(F)F)c1 (stereo not drawn) [Example 129, 2-(5-{3-[(7-{[(1,1,1,3,3,3-Hexafluoropropan-2-yl)oxy]carbonyl}-2,7-diazaspiro[3.5]nonan-2-yl)methyl]-5-(trifluoromethyl)phenyl}-2,5-diazabicyclo[2.2.1]heptan-2-yl)acetic acid]	–
–	< 100	100 to 1000	> 1000	O=C(O)C1CCN(c2cc(Cl)ccc2CN2CCC3(CC2)CCN(C(=O)OC(C(F)(F)F)C(F)(F)F)C3)CC1 [Example 194, 1-(5-Chloro-2-((2-(((1,1,1,3,3,3-hexafluoropropan-2-yl)oxy)carbonyl)-2,8-diazaspiro[4.5]decan-8-yl)methyl)phenyl) piperidine-4-carboxylic acid]	IC50 (MAGL [2]; [4]): < 100 nM
–	–	< 100	< 100	CC(=O)N1CCCc2cccc(CN3CCC4(CC3)CN(C(=O)OC(C(F)(F)F)C(F)(F)F)C4)c21 [Example 152, 1,1,1,3,3,3-Hexafluoropropan-2-yl 7-((1-acetyl-1,2,3,4-tetrahydroquinolin-8-yl)methyl)-2,7-diazaspiro[3.5]nonane-2-carboxylate]	–
–	–	< 100	100 to 1000	O=C(OC(C(F)(F)F)C(F)(F)F)N1CCC2(CC1)CN(Cc1ccc(C(F)(F)F)cc1N1CCOCC1)C2 [Example 36, 1,1,1,3,3,3-Hexafluoropropan-2-yl 2-(2-morpholino-4-(trifluoromethyl)benzyl)-2,7-diazaspiro[3.5]nonane-7-carboxylate]	–
–	–	< 100	< 100	Cc1cccc(CN2CC3(CCN(C(=O)OC(C(F)(F)F)C(F)(F)F)CC3)C2)c1 [Example 86, 1,1,1,3,3,3-Hexafluoropropan-2-yl 2-(3-methylbenzyl)-2,7-diazaspiro[3.5]nonane-7-carboxylate]	–
–	–	100 to 1000	> 1000	CCN1CCC2(CCN(c3cc(Cl)ccc3CN3CCN(C(=O)OC(C(F)(F)F)C(F)(F)F)CC3)CC2)C1 [Example 170, 1,1,1,3,3,3-Hexafluoropropan-2-yl 4-(4-chloro-2-(2-ethyl-2,8-diazaspiro[4.5]decan-8-yl)benzyl)piperazine-1-carboxylate]	–
–	–	100 to 1000	> 1000	CN1CCCC12CCN(c1cc(Cl)ccc1CN1CCN(C(=O)OC(C(F)(F)F)C(F)(F)F)CC1)CC2 [Example 214, 1,1,1,3,3,3-Hexafluoropropan-2-yl 4-(4-chloro-2-(1-methyl-1,8-diazaspiro[4.5]decan-8-yl)benzyl)piperazine-1--carboxylate]	–
–	< 100	–	–	O=C(O)CN1CC2CC1CN2c1cc(C(F)(F)F)ccc1CN1CCCC12CCN(C(=O)OC(C(F)(F)F)C(F)(F)F)CC2 (stereo not drawn) [Example 6, 2-(5-(2-((8-(((1,1,1,3,3,3-hexafluoropropan-2-yl)oxy)carbonyl)-1,8-diazaspiro[4.5]decan-1-yl)methyl)-5-(trifluoromethyl)phenyl)-2,5-diazabicyclo[2.2.1]heptan-2-yl)acetic acid]	% Inh MGLL Brain (Mouse, μM) (MGLL): ### (### is ≥ 75%); % Inh ABHD6 Brain (Mouse, μM) (ABHD6): # (# is ≤ 25%); % Inh MGLL PFC (Human, μM) (MAGL [2]; [5]): ### (### is ≥ 75%); IC50 (MAGL [2]; [4]): < 100 nM
–	–	< 100	100 to 1000	O=C(OC(C(F)(F)F)C(F)(F)F)N1CCC2(CC1)CN(Cc1ccc(C(F)(F)F)cc1N1CCCCC1)C2 [Example 35]	–
–	–	< 100	< 100	O=C(OC(C(F)(F)F)C(F)(F)F)N1CCC2(CC1)CN(Cc1cccc(C(F)(F)F)c1)C2 [Example 89, 1,1,1,3,3,3-Hexafluoropropan-2-yl 2-(3-(trifluoromethyl)benzyl)-2,7-diazaspiro[3.5]nonane-7-carboxylate]	–
